US8093240B2, “Triazole derivatives” (Merck Patent GmbH, priority 2005, dated 2012)

System: TGF-beta
Assay: Elimination of TGF-beta-mediated growth inhibition in Mv1Lu cells (Crystal Violet staining)
Format: cell-based
Conditions: 48 h; lung epithelial cell line Mv1Lu, 1 ng/ml TGF-beta, 0.5% FCS, two days
Experimental: In-Vitro (Enzyme) Assay for Determination of the Efficacy of Inhibitors of the Inhibition of TGF-Beta-Mediated Effects
As an example, the ability of the inhibitors to eliminate TGF-beta-mediated growth inhibition is tested.
Cells of the lung epithelial cell line Mv1Lu are sown in a defined cell density in a 96-well microtitre plate and cultivated overnight under standard conditions. Next day, the medium is replaced by medium which comprises 0.5% of FCS and 1 ng/ml of TGF-beta, and the test sub-stances are added in defined concentrations, generally in the form of dilution series with 5-fold steps. The concentration of the solvent DMSO is constant at 0.5%. After a further two days, Crystal Violet staining of the cells is carried out. After extraction of the Crystal Violet from the fixed cells, the absorption is measured spectrophotometrically at 550 nm. It can be used as a quantitative measure of the adherent cells present and thus of the cell proliferation during the culture.

Structure (SMILES) | IC50
Cc1cccc(-c2nnc3n2-c2ccc(O)cc2NCC3C)n1 (racemic) [Compound A1, (R,S)-8-hydroxy-4-methyl-1-(6-methylpyridin-2-yl)-5,6-dihydro-4H-2,3,6,10btetraazabenzo[e]azulene] | 0.18 µM
CC1CNc2cc(O)ccc2-n2c(-c3cccc(Cl)c3)nnc21 (racemic) [Compound A2, (R,S)-1-(3-Chlorophenyl)-4-methyl-5,6-dihydro-4H-2,3,6,10b-tetraazabenzo[e]azulen-8-ol] | 0.97 µM
Cc1cccc(-c2nnc3n2-c2ccc(Cl)cc2NCC3C)n1 (racemic) [Compound A3, (R,S)-8-Chloro-4-methyl-1-(6-methylpyridin-2-yl)-5,6-dihydro-4H-2,3,6,10b-tetraazabenzo[e]azulene] | 3.5 µM
COc1ccc2c(c1)NCC(C)c1nnc(-c3cccc(C)n3)n1-2 (racemic) [Compound A5, (R,S)-8-Methoxy-4-methyl-1-(6-methylpyridin-2-yl)-5,6-dihydro-4H-2,3,6,10b-tetraazabenzo[e]azulene] | 2.4 µM
COc1cccc(-c2nnc3n2-c2ccc(OC)cc2NCC3C)c1 (racemic) [Compound A6, (R,S)-8-Methoxy-1-(3-methoxyphenyl)-4-methyl-5,6-dihydro-4H-2,3,6,10b-tetraazabenzo[e]azulene] | 3.9 µM
COc1ccc2c(c1)NCC(C)c1nnc(-c3cc(Cl)ccc3F)n1-2 (racemic) [Compound A8, (R,S)-1-(5-Chloro-2-fluorophenyl)-8-methoxy-4-methyl-5,6-dihydro-4H-2,3,6,10b-tetraazabenzo[e]azulene] | 6.6 µM
CC1CNc2cc(O)ccc2-n2c(-c3cc(Cl)ccc3F)nnc21 (racemic) [Compound A9, (R,S)-1-(5-Chloro-2-fluorophenyl)-4-methyl-5,6-dihydro-4H-2,3,6,10b-tetraazabenzo[e]azulene-8-ol] | 0.91 µM
CCOc1cccc(-c2nnc3n2-c2ccc(Cl)cc2NCC3C)c1 (racemic) [Compound A10, (R,S)-8-Chloro-1-(3-ethoxyphenyl)-4-methyl-5,6-dihydro-4H-2,3,6,10b-tetraazabenzo[e]azulene] | 5.7 µM
COc1cccc(-c2nnc3n2-c2ccc(Cl)cc2NCC3C)c1 (racemic) [Compound B1, (R,S)-8-Chloro-1-(3-methoxyphenyl)-4-methyl-5,6-dihydro-4H-2,3,6,10b-tetraazabenzo[e]azulene] | 7 µM
Cc1cccc(-c2nnc3n2-c2ccc(Cl)cc2NC[C@@H]3C)n1 [Compound A4, (+)-(S)-8-Chloro-4-methyl-1-(6-methylpyridin-2-yl)-5,6-dihydro-4H-2,3,6,10b-tetraazabenzo[e]azulene] | 3.8 µM
Cc1cccc(-c2nnc3n2-c2ccc(O)cc2NCC3)n1 [Compound A7, 1-(6-Methylpyridin-2-yl)-5,6-dihydro-4H-2,3,6,10b-tetraazabenzo[e]azulen-8-ol] | 2.2 µM
Cc1cccc(-c2nnc3n2-c2ccc(O)cc2NC(C)C3)n1 (stereo not shown) [Compound A78, 5-Methyl-1-(6-methylpyridin-2-yl)-5,6-dihydro-4H-2,3,6,10b-tetraazabenzo[e]azulen-8-ol] | 0.15 µM
Cc1cccc(-c2nnc3n2-c2cc(NC(=O)C(C)(C)C)ccc2NCC3C)n1 (stereo not shown) [Compound A80, 2,2-Dimethyl-N-[4-methyl-1-(6-methylpyridin-2-yl)-5,6-dihydro-4H-2,3,6,10b-tetraazabenzo[e]azulen-9-yl]propionamide] | 3.3 µM
